{"source": "patent US20210052705A1", "about": "“METHOD OF DRUG […] FOR PTH, PTHrP AND RELATED PEPTIDES” (Radius Health, Inc., priority 2011, published 2021)", "key": {"[1]": {"details": "male, Sprague Dawley, rat, in vivo", "protocol": "Certain drug coated microarrays were tested in vivo in a preclinical model using Sprague Dawley rats. […] Male Sprague Dawley rats with jugular vein catheters were purchased from Charles River Laboratories. Once received, they were acclimated for at least 24 hours prior to dosing.\nTypically, one hour prior to dosing microneedle arrays were removed from refrigeration (approximately 4° C.) and allowed to equilibrate to room temperature.\nThe standard procedure for skin preparation and microneedle array application is as follows.\nOne day prior to dosing, an area just above the hind legs on the dorsal surface of the rat was shaved using electric clippers. Nair® hair removal lotion (Church & Dwight Co.) was then applied to the area for 5 to 8 minutes to remove remaining fur stubble. The Nair® lotion was then thoroughly removed using a damp cloth. The next day a microneedle array was applied using a spring-loaded applicator. The microneedle array was left in contact with skin for five minutes, before being removed. During array application and contact time the rats were manually restrained.\nBlood was collected at three time points from each animal out of a possible total of five time destinations (5 minutes, 15 minutes, 30 minutes, 45 minutes, 90 minutes) from each rat on a staggered schedule so that all time points would be represented with extra sampling at 15 minutes without overdrawing from any animal. Approximately 1 mL of blood was collected via the catheter from the jugular vein using a syringe and needle from rats for their first two blood draws. For the terminal blood collection, animals were euthanized via CO2 chamber and approximately 1 mL of blood was collected via cardiac puncture. The blood was immediately transferred to a serum separator tube that contained 25 μL of a 2.5 mg/ml aprotinin (Sigma) solution.\nBlood was collected from each rat 5, 10, 15, 30 and 45 minutes post dose. Approximately 600 μL of blood was collected via the catheter from the jugular vein using a syringe and needle from rats for their first four blood draws. For the terminal blood collection, animals were euthanized via CO2 chamber and approximately 600 μL of blood was collected via cardiac puncture. The blood was immediately transferred to a serum separator tube that contained 12 μL of a 2.5 mg/ml aprotinin (Sigma) solution.\nBlood was collected three or four times from each rat at the time points depicted in the tables below. Approximately 1 mL of blood was collected via the catheter from the jugular vein using a syringe and needle from rats for any non-terminal time points. For the terminal blood collection, animals were euthanized via CO2 chamber and approximately 1 mL of blood was collected via cardiac puncture. The blood was immediately transferred to a serum separator tube that contained 20 μL of a 2.5 mg/ml aprotinin (Sigma) solution.\nBlood was collected from each rat 5, 15, 30, 45, 90 and 120 minutes post dose. Approximately 500 μL of blood was collected via the catheter from the jugular vein using a syringe and needle from rats for their first five blood draws. For the terminal blood collection, animals were euthanized via CO2 chamber and approximately 500 μL of blood was collected via cardiac puncture."}, "[2]": {"parameters": "AUC5-90, Mean: unit not given beside the values", "details": "Sprague-Dawley, rat, in vivo, 13.6 ug"}, "[3]": {"details": "female, human, in vivo"}, "clinical": {"test": "clinical", "details": "female, human, in vivo, LS Mean; for AUC(0-inf): AUC0-inf; for AUC(0-t): AUC0-t"}}, "note": "Like-named read-outs stand apart in the source and are kept apart here.", "data": [{"compound": "CC[C@H](C)[C@H](NC(=O)[C@H](CO)NC(=O)[C@H](CCCCN)NC(=O)CNC(=O)[C@H](CCCCN)NC(=O)[C@H](CC(=O)O)NC(=O)[C@H](Cc1cnc[nH]1)NC(=O)[C@H](CC(C)C)NC(=O)[C@H](CC(C)C)NC(=O)[C@H](CCC(N)=O)NC(=O)[C@H](Cc1cnc[nH]1)NC(=O)[C@H](CCC(=O)O)NC(=O)[C@H](CO)NC(=O)[C@@H](NC(=O)[C@H](C)N)C(C)C)C(=O)N[C@@H](CCC(N)=O)C(=O)N[C@@H](CC(=O)O)C(=O)N[C@@H](CC(C)C)C(=O)N[C@@H](CCCNC(=N)N)C(=O)N[C@@H](CCCNC(=N)N)C(=O)N[C@@H](CCCNC(=N)N)C(=O)N[C@@H](CCC(=O)O)C(=O)N[C@@H](CC(C)C)C(=O)N[C@@H](CC(C)C)C(=O)N[C@@H](CCC(=O)O)C(=O)N[C@@H](CCCCN)C(=O)N[C@@H](CC(C)C)C(=O)N[C@@H](CC(C)C)C(=O)NC(C)(C)C(=O)N[C@@H](CCCCN)C(=O)N[C@@H](CC(C)C)C(=O)N[C@@H](Cc1cnc[nH]1)C(=O)N[C@H](C(=O)N[C@@H](C)C(N)=O)[C@@H](C)O", "note": "[Peptide]", "values": [{"measurement": "AUC(0-t)", "setting": "[1]; 20 ug/kg", "value": 166, "unit": "ng·min/mL"}, {"measurement": "Cmax", "setting": "[1]; 20 ug/kg", "value": 7.15, "unit": "ng/mL"}, {"measurement": "Cmax (20 μg/kg Dose)", "setting": "[1]; 20 ug/kg", "value": 7.15, "unit": "ng/mL"}, {"measurement": "T1/2", "setting": "[1]; 20 ug/kg", "value": 14, "unit": "min"}, {"measurement": "Tmax", "setting": "[1]; 20 ug/kg", "value": 15, "unit": "min"}, {"measurement": "Concentrations of Peptide in Serum", "setting": "[1]; 26.2 ug, 5 min", "value": 45.29, "unit": "ng/mL"}, {"measurement": "Concentrations of Peptide in Serum", "setting": "[1]; 26.2 ug, 0.25 h", "value": 59.72, "unit": "ng/mL"}, {"measurement": "Concentrations of Peptide in Serum", "setting": "[1]; 26.2 ug, 0.5 h", "value": 20.15, "unit": "ng/mL"}, {"measurement": "Concentrations of Peptide in Serum", "setting": "[1]; 26.2 ug, 0.75 h", "value": 11.63, "unit": "ng/mL"}, {"measurement": "T1/2", "setting": "[1]; 27 ug", "value": 26, "unit": "min"}, {"measurement": "Tmax", "setting": "[1]; 27 ug", "value": 15, "unit": "min"}, {"measurement": "Concentrations of Peptide in Serum", "setting": "[1]; 27 ug, 5 min", "value": 21.34, "unit": "ng/mL"}, {"measurement": "Concentrations of Peptide in Serum", "setting": "[1]; 27 ug, 0.25 h", "value": 31.08, "unit": "ng/mL"}, {"measurement": "Concentrations of Peptide in Serum", "setting": "[1]; 27 ug, 0.5 h", "value": 12.43, "unit": "ng/mL"}, {"measurement": "Concentrations of Peptide in Serum", "setting": "[1]; 27 ug, 0.75 h", "value": 6.99, "unit": "ng/mL"}, {"measurement": "Concentrations of Peptide in Serum", "setting": "[1]; 32 ug, 5 min", "value": 37.76, "unit": "ng/mL"}, {"measurement": "Concentrations of Peptide in Serum", "setting": "[1]; 32 ug, 10 min", "value": 29.94, "unit": "ng/mL"}, {"measurement": "Concentrations of Peptide in Serum", "setting": "[1]; 32 ug, 0.25 h", "value": 37.48, "unit": "ng/mL"}, {"measurement": "Concentrations of Peptide in Serum", "setting": "[1]; 32 ug, 0.5 h", "value": 15.99, "unit": "ng/mL"}, {"measurement": "Concentrations of Peptide in Serum", "setting": "[1]; 32 ug, 0.75 h", "value": 8.39, "unit": "ng/mL"}, {"measurement": "AUC(0-t)", "setting": "[1]; 141.9 ug", "value": 5199, "unit": "ng·min/mL"}, {"measurement": "Cmax", "setting": "[1]; 141.9 ug", "value": 153.74, "unit": "ng/mL"}, {"measurement": "Tmax", "setting": "[1]; 141.9 ug", "value": 15, "unit": "min"}, {"measurement": "% F", "setting": "[1]; 386.5 ug", "value": 24, "unit": "%"}, {"measurement": "AUC(0-t)", "setting": "[1]; 386.5 ug", "value": 6899, "unit": "ng·min/mL"}, {"measurement": "Cmax", "setting": "[1]; 386.5 ug", "value": 179.02, "unit": "ng/mL"}, {"measurement": "T1/2", "setting": "[1]; 386.5 ug", "value": 16, "unit": "min"}, {"measurement": "Tmax", "setting": "[1]; 386.5 ug", "value": 15, "unit": "min"}, {"measurement": "AUC5-90, Mean", "setting": "[2]", "value": 282}, {"measurement": "Cmax, Mean", "setting": "[2]", "value": 12.3, "unit": "ng/mL"}, {"measurement": "Tmax, Mean", "setting": "[2]", "value": 9, "unit": "min"}, {"measurement": "Concentration in Serum at 5 min, Mean", "setting": "[2]; 5 min", "value": 11.8, "unit": "ng/mL"}, {"measurement": "Concentration in Serum at 15 min, Mean", "setting": "[2]; 0.25 h", "value": 10.5, "unit": "ng/mL"}, {"measurement": "Concentration in Serum at 30 min, Mean", "setting": "[2]; 0.5 h", "value": 7.1, "unit": "ng/mL"}, {"measurement": "AUC0-inf, LS Mean", "setting": "[3]; 150 ug", "value": 157.42, "unit": "pg·h/mL"}, {"measurement": "AUC0-t, LS Mean", "setting": "[3]; 150 ug", "value": 142.85, "unit": "pg·h/mL"}, {"measurement": "Cmax, LS Mean", "setting": "[3]; 150 ug", "value": 311.97, "unit": "pg/mL"}, {"measurement": "AUC0-inf, LS Mean", "setting": "[3]; 200 ug", "value": 190.16, "unit": "pg·h/mL"}, {"measurement": "AUC0-t, LS Mean", "setting": "[3]; 200 ug", "value": 166.79, "unit": "pg·h/mL"}, {"measurement": "Cmax, LS Mean", "setting": "[3]; 200 ug", "value": 489.45, "unit": "pg/mL"}, {"measurement": "AUC(0-inf)", "setting": "clinical; 100 ug", "value": 0.0885, "unit": "ng·h/mL"}, {"measurement": "AUC(0-t)", "setting": "clinical; 100 ug", "value": 0.112, "unit": "ng·h/mL"}, {"measurement": "Cmax", "setting": "clinical; 100 ug", "value": 0.366, "unit": "ng/mL"}, {"measurement": "AUC(0-inf)", "setting": "clinical; 150 ug", "value": 0.119, "unit": "ng·h/mL"}, {"measurement": "AUC(0-t)", "setting": "clinical; 150 ug", "value": 0.107, "unit": "ng·h/mL"}, {"measurement": "Cmax", "setting": "clinical; 150 ug", "value": 0.315, "unit": "ng/mL"}, {"measurement": "AUC(0-inf)", "setting": "clinical; 200 ug", "value": 0.11, "unit": "ng·h/mL"}, {"measurement": "AUC(0-t)", "setting": "clinical; 200 ug", "value": 0.0975, "unit": "ng·h/mL"}, {"measurement": "Cmax", "setting": "clinical; 200 ug", "value": 0.337, "unit": "ng/mL"}]}]}
